Source: ChEMBL document CHEMBL4043145, “Pyridine-pyrimidine amides that prevent HGF-induced epithelial scattering by two distinct mechanisms” (Bioorg Med Chem Lett, 2017)

Assays:
A2780 [1] = assay: Antiproliferative activity against human A2780 cells; assay type: functional, cell-based
A2780 [2] = assay: Cell cycle arrest in human A2780 cells assessed as accumulation at S phase at 1000 nM (reference value: 21.16 to 22.81%); assay type: functional
A2780 [3] = assay: Cell cycle arrest in human A2780 cells assessed as accumulation at G1 phase at 100 nM (reference value: 55.26 to 55.66%); assay type: functional
A2780 [4] = assay: Cell cycle arrest in human A2780 cells assessed as accumulation at S phase at 100 nM (reference value: 21.16 to 22.81%); assay type: functional
MCF7 [5] = assay: Cell cycle arrest in human MCF7 cells assessed as accumulation at G1 phase at 1000 nM (reference value: 47.47 to 52.3%); assay type: functional
MCF7 [6] = assay: Cell cycle arrest in human MCF7 cells assessed as accumulation at S phase at 1000 nM (reference value: 25.36 to 26.82%); assay type: functional
MCF7 [7] = assay: Cell cycle arrest in human MCF7 cells assessed as accumulation at G1 phase at 100 nM (reference value: 47.47 to 52.3%); assay type: functional
MCF7 [8] = assay: Cell cycle arrest in human MCF7 cells assessed as accumulation at S phase at 100 nM (reference value: 25.36 to 26.82%); assay type: functional
MCF7 [9] = assay: Cell cycle arrest in human MCF7 cells assessed as accumulation at G2/M phase at 100 nM (reference value: 20.06 to 22.33%); assay type: functional
MCF7 [10] = assay: Cell cycle arrest in human MCF7 cells assessed as accumulation at G1 phase at 300 nM (reference value: 47.47 to 52.3%); assay type: functional
MCF7 [11] = assay: Cell cycle arrest in human MCF7 cells assessed as accumulation at S phase at 300 nM (reference value: 25.36 to 26.82%); assay type: functional
MCF7 [12] = assay: Cell cycle arrest in human MCF7 cells assessed as accumulation at G2/M phase at 300 nM (reference value: 20.06 to 22.33%); assay type: functional
PC-3 [13] = assay: Cell cycle arrest in human p53-null PC3 cells assessed as accumulation at S phase at 1000 nM (reference value: 29.08 to 29.33%); assay type: functional
PC-3 [14] = assay: Cell cycle arrest in human p53-null PC3 cells assessed as accumulation at G2/M phase at 1000 nM (reference value: 18.37 to 18.96%); assay type: functional
PC-3 [15] = assay: Cell cycle arrest in human p53-null PC3 cells assessed as accumulation at G1 phase at 100 nM (reference value: 50.77 to 51.16%); assay type: functional
PC-3 [16] = assay: Cell cycle arrest in human p53-null PC3 cells assessed as accumulation at G2/M phase at 100 nM (reference value: 18.37 to 18.96%); assay type: functional
MFE-280 [17] = assay: Cell cycle arrest in human MFE280 cells assessed as accumulation at G2/M phase at 1000 nM (reference value: 16.43 to 17.9%); assay type: functional
MFE-280 [18] = assay: Cell cycle arrest in human MFE280 cells assessed as accumulation at G1 phase at 100 nM (reference value: 64.99 to 67.86%); assay type: functional
MFE-280 [19] = assay: Cell cycle arrest in human MFE280 cells assessed as accumulation at G2/M phase at 100 nM (reference value: 16.43 to 17.9%); assay type: functional
MFE-280 [20] = assay: Cell cycle arrest in human MFE280 cells assessed as accumulation at G1 phase at 300 nM (reference value: 64.99 to 67.86%); assay type: functional
MFE-296 [21] = assay: Cell cycle arrest in human MFE296 cells assessed as accumulation at G1 phase at 100 nM (reference value: 61.05 to 64.87%); assay type: functional
MFE-296 [22] = assay: Cell cycle arrest in human MFE296 cells assessed as accumulation at S phase at 100 nM (reference value: 16.96 to 19.19%); assay type: functional
MFE-296 [23] = assay: Cell cycle arrest in human MFE296 cells assessed as accumulation at G2/M phase at 100 nM (reference value: 15.71 to 17.04%); assay type: functional
MFE-296 [24] = assay: Cell cycle arrest in human MFE296 cells assessed as accumulation at G1 phase at 300 nM (reference value: 61.05 to 64.87%); assay type: functional
MFE-296 [25] = assay: Cell cycle arrest in human MFE296 cells assessed as accumulation at S phase at 300 nM (reference value: 16.96 to 19.19%); assay type: functional
T47D [26] = assay: Cell cycle arrest in human T47D cells assessed as accumulation at G1 phase at 1000 nM (reference value: 45.5 to 57.8%); assay type: functional
T47D [27] = assay: Cell cycle arrest in human T47D cells assessed as accumulation at S phase at 1000 nM (reference value: 19.89 to 24.55%); assay type: functional
T47D [28] = assay: Cell cycle arrest in human T47D cells assessed as accumulation at G2/M phase at 1000 nM (reference value: 20.58 to 28.8%); assay type: functional
T47D [29] = assay: Cell cycle arrest in human T47D cells assessed as accumulation at G1 phase at 100 nM (reference value: 45.5 to 57.8%); assay type: functional
T47D [30] = assay: Cell cycle arrest in human T47D cells assessed as accumulation at S phase at 100 nM (reference value: 19.89 to 24.55%); assay type: functional
T47D [31] = assay: Cell cycle arrest in human T47D cells assessed as accumulation at G2/M phase at 100 nM (reference value: 20.58 to 28.8%); assay type: functional
T47D [32] = assay: Cell cycle arrest in human T47D cells assessed as accumulation at S phase at 300 nM (reference value: 19.89 to 24.55%); assay type: functional
MCF7 [33] = assay: Induction of apoptosis in human MCF7 cells assessed as late apoptotic cells at 1000 nM by 7-AAD/Annexin staining-based assay (reference value: 1 to 2.1%); assay type: functional
MFE-280 [34] = assay: Induction of apoptosis in human MFE280 cells assessed as early apoptotic cells at 1000 nM by 7-AAD/Annexin staining-based assay (reference value: 5.1 to 6.2%); assay type: functional
MFE-280 [35] = assay: Induction of apoptosis in human MFE280 cells assessed as late apoptotic cells at 1000 nM by 7-AAD/Annexin staining-based assay (reference value: 6 to 7.4%); assay type: functional
MFE-280 [36] = assay: Induction of apoptosis in human MFE280 cells assessed as early apoptotic cells at 300 nM by 7-AAD/Annexin staining-based assay (reference value: 5.1 to 6.2%); assay type: functional
MFE-280 [37] = assay: Induction of apoptosis in human MFE280 cells assessed as early apoptotic cells at 100 nM by 7-AAD/Annexin staining-based assay (reference value: 5.1 to 6.2%); assay type: functional
MFE-280 [38] = assay: Induction of apoptosis in human MFE280 cells assessed as late apoptotic cells at 100 nM by 7-AAD/Annexin staining-based assay (reference value: 6 to 7.4%); assay type: functional
MFE-296 [39] = assay: Induction of apoptosis in human MFE296 cells assessed as nuclear debris at 300 nM by 7-AAD/Annexin staining-based assay (reference value: 0.4 to 0.8%); assay type: functional

With `O=C(Nc1ccc(-c2cccc(Cl)c2)cn1)c1cncnc1` the EC50 (A2780 [1]) was 0.055 µM, the Activity (A2780 [2]) was 7.1% and the Activity (A2780 [3]) was 58.01%. It also gave an Activity (A2780 [4]) of 18.92%, an Activity (MCF7 [5]) of 8.04% and an Activity (MCF7 [6]) of 16.61%. The Activity (MCF7 [7]) was 43.58%, the Activity (MCF7 [8]) was 19.1% and the Activity (MCF7 [9]) was 26.95%. For the same compound, the Activity (MCF7 [10]) was 16.22%, the Activity (MCF7 [11]) was 23.22% and the Activity (MCF7 [12]) was 32.59%. For the same compound, the Activity (PC-3 [13]) was 17.78%, the Activity (PC-3 [14]) was 76.06% and the Activity (PC-3 [15]) was 51.5%. It also gave an Activity (PC-3 [16]) of 25.26%, an Activity (MFE-280 [17]) of 46.61% and an Activity (MFE-280 [18]) of 61.48%. For the same compound, the Activity (MFE-280 [19]) was 18.95%, the Activity (MFE-280 [20]) was 39.17% and the Activity (MFE-296 [21]) was 53.3%. It also gave an Activity (MFE-296 [22]) of 21.05%, an Activity (MFE-296 [23]) of 21.13% and an Activity (MFE-296 [24]) of 13.78%. The Activity (MFE-296 [25]) was 20.61%, the Activity (T47D [26]) was 31.65% and the Activity (T47D [27]) was 21.38%. It also gave an Activity (T47D [28]) of 43.07%, an Activity (T47D [29]) of 54.23% and an Activity (T47D [30]) of 22.91%. The Activity (T47D [31]) was 19.68%, the Activity (T47D [32]) was 27.41% and the Activity (MCF7 [33]) was 2.4%. For the same compound, the Activity (MFE-280 [34]) was 5.9%, the Activity (MFE-280 [35]) was 8.4% and the Activity (MFE-280 [36]) was 5.4%. It also gave an Activity (MFE-280 [37]) of 4.9%, an Activity (MFE-280 [38]) of 8.3% and an Activity (MFE-296 [39]) of 2.6%.
